pEC50: −log10 of the molar value. Activity calls are given as the source filed them. No cut-off for these calls is given here.
Key:
hERG (KCNH2) = hERG (KCNH2) (Homo sapiens, UniProt Q12809); experiment: Inhibition of hERG expressed in HEK293 cells at 1 uM at holding potential of -80 mV by whole cell patch clamp assay relative to control; assay type: toxicity, cell-based; conditions: HEK293 cells expressing hERG
Hepatitis B virus [1] = experiment: Antiviral activity against HBV infected human HePAD38 cells assessed as reduction of HBV DNA level with compound replacement for every 3 days and measured on day 6 by qPCR analysis; assay type: functional, organism-based
[2] = Cytotoxicity against human HePAD38 cells assessed as reduction in cell viability by CCK-8 assay; assay type: toxicity, cell-based
[3] = Selectivity index, ratio of CC50 for cytotoxicity against human HePAD38 cells assessed as reduction in cell viability to EC50 for antiviral activity against HBV infected human HePAD38 cells assessed as reduction of HBV DNA level; assay type: toxicity, cell-based; conditions: read-out: Ratio CC50/EC50
CYP1A2 = target: T1, CYP1A2 (Homo sapiens, UniProt P05177); experiment: Inhibition of CYP1A2 (unknown origin) at 10 uM using phenacetin as substrate incubated for 10 mins in presence of NADPH by LC-MS/MS analysis relative to control; assay type: ADME; conditions: probe phenacetin
T1 sequence (P05177 whole entry): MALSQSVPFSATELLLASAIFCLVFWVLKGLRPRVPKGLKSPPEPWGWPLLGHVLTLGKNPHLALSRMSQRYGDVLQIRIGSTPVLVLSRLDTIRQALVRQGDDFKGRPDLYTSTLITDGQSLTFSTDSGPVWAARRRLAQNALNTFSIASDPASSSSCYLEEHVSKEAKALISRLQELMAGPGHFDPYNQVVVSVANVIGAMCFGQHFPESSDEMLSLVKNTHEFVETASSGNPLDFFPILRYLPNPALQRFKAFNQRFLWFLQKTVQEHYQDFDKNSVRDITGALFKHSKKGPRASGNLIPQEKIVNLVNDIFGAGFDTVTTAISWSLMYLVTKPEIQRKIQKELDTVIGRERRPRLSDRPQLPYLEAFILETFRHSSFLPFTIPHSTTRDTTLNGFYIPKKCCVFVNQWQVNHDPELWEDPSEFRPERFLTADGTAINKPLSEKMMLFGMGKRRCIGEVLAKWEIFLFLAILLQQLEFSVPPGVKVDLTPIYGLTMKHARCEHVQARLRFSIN

CYP2D6 = CYP2D6 (Homo sapiens, UniProt P10635); experiment: Inhibition of CYP2D6 (unknown origin) at 10 uM using dextromethorphan as substrate incubated for 10 mins in presence of NADPH by LC-MS/MS analysis relative to control; assay type: ADME; conditions: probe dextromethorphan
[4] = Metabolic stability in human liver microsome assessed as intrinsic clearance preincubated for 10 mins followed by NADPH addition and measured after 60 mins by LC-MS/MS analysis; assay type: ADME; conditions: liver microsomes, time 70 min, read-out: CLH
[5] = Metabolic stability in human liver assessed as intrinsic clearance preincubated for 10 mins followed by NADPH addition and measured after 60 mins by LC-MS/MS analysis; assay type: ADME, tissue-based; conditions: time 70 min, read-out: CLH
[6] = Metabolic stability in human liver microsome assessed as half life preincubated for 10 mins followed by NADPH addition and measured after 60 mins by LC-MS/MS analysis; assay type: ADME; conditions: liver microsomes, time 70 min
CYP2C19 = CYP2C19 (Homo sapiens, UniProt P33261); experiment: Inhibition of CYP2C19 (unknown origin) at 10 uM using s-mephenytoin as substrate incubated for 10 mins in presence of NADPH by LC-MS/MS analysis relative to control; assay type: ADME; conditions: probe S-mephenytoin
CYP2C9 = CYP2C9 (Homo sapiens, UniProt P11712); experiment: Inhibition of CYP2C9 (unknown origin) at 10 uM using diclofenac as substrate incubated for 10 mins in presence of NADPH by LC-MS/MS analysis relative to control; assay type: ADME; conditions: probe diclofenac
Hepatitis B virus [7] = experiment: Antiviral activity against HBV infected human HePAD38 cells assessed as reduction in intracellular capsid content at 1 uM incubated for 6 days; assay type: functional, organism-based; conditions: time 6.0 day

Chain of CYP2C19 (P33261 whole entry): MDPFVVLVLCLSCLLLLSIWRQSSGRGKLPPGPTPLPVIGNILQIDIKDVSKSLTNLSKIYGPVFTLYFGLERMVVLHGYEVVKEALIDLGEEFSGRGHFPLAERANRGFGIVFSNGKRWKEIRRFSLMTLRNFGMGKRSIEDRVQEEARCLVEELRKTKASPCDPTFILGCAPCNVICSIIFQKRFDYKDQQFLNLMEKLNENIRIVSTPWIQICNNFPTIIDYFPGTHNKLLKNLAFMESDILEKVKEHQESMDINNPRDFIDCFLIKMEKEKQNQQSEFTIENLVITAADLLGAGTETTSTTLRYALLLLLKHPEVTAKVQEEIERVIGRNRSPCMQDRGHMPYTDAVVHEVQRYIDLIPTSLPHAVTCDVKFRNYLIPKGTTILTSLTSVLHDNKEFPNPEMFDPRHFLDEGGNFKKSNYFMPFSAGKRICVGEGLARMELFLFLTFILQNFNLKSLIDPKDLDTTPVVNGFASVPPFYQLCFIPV
Chain of CYP2C9 (P11712 whole entry): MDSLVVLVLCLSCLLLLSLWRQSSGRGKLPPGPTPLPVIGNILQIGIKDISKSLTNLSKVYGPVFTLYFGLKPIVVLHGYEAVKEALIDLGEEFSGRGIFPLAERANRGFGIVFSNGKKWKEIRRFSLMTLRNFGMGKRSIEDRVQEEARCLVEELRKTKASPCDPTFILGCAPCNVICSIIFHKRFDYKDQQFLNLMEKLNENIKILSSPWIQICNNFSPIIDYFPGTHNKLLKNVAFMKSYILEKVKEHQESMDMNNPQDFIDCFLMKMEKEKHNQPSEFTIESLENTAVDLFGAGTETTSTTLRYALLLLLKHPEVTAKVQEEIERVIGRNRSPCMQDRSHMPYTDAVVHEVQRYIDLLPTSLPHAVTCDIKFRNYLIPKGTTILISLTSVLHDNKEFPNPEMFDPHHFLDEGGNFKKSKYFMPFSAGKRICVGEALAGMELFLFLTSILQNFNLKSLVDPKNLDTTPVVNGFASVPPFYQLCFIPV
Chain of hERG (KCNH2) (Q12809 whole entry): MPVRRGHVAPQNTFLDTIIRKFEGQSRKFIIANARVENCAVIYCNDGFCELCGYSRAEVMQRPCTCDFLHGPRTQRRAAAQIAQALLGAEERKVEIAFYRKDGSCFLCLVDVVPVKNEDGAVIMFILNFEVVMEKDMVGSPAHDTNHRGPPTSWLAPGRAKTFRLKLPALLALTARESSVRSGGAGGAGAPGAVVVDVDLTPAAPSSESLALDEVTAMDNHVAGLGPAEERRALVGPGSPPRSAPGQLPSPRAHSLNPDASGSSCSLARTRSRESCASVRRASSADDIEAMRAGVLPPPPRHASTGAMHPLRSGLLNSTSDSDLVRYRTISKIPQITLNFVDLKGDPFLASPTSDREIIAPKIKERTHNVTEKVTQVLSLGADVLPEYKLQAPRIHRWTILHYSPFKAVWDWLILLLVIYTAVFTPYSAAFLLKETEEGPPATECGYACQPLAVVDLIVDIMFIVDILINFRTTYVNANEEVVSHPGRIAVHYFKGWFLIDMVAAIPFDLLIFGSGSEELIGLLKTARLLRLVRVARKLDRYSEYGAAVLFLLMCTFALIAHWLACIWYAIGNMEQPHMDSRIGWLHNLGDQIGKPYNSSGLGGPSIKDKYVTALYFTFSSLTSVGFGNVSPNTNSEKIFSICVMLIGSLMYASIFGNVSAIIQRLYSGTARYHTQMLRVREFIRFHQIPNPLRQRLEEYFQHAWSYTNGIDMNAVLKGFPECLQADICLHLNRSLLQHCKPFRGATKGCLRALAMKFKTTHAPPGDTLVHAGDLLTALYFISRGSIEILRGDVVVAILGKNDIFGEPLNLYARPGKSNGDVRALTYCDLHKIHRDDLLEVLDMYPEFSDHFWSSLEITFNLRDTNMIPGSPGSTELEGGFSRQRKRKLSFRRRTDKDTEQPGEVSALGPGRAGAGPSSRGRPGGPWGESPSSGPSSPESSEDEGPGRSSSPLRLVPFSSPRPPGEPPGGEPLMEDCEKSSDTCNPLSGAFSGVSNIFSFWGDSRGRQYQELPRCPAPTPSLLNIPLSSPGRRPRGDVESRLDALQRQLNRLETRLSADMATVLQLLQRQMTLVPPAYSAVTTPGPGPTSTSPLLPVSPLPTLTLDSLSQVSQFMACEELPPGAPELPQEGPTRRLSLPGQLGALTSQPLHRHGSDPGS
Chain of CYP2D6 (P10635 whole entry): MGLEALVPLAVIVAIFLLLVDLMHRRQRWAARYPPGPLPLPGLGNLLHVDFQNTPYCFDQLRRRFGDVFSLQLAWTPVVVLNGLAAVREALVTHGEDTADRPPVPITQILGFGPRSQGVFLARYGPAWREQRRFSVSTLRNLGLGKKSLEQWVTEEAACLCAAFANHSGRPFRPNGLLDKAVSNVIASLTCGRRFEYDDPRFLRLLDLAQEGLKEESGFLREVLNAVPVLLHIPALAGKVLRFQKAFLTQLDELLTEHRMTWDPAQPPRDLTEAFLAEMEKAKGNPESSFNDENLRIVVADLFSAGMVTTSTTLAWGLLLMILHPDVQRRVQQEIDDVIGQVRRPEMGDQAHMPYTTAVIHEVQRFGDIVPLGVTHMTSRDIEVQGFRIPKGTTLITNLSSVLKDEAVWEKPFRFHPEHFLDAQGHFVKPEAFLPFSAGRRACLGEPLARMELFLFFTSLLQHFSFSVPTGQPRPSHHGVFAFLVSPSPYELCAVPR

Row | Structure (SMILES) | pEC50 (Hepatitis B virus [1]) | CC50 [2] | selectivity ratio [3] | other results
1 | COc1cc(N)c(Cl)cc1C(=O)NC1CCN(CCCOc2ccc(F)cc2)CC1OC (configuration not stated) [CISAPRIDE] |  |  |  | inhibition at 1 µM (hERG (KCNH2)): 96.7%
2 | CCOC(=O)C1=C(CN2CCN(C(C(=O)O)c3ccc4occc4c3)CC2)NC(c2nccs2)=NC1c1ccc(F)cc1Br (configuration not stated) | 5.64 | 22.4 µM | 9.8 | 
3 | CCOC(=O)C1=C(CN2CCN(C(C(=O)O)c3ccsc3)CC2)NC(c2nccs2)=NC1c1ccc(F)cc1Br (configuration not stated) | 7.15 | > 50 µM | 962 | 
4 | CCOC(=O)C1=C(CN2CCN(C(C(=O)O)c3ccccc3C)CC2)NC(c2nccs2)=NC1c1ccc(F)cc1Br (configuration not stated) | 6.24 | 22.4 µM | 30.2 | 
5 | O=c1cc(-c2ccccc2)oc2c1ccc1ccccc12 [ALPHA-NAPHTHOFLAVONE] |  |  |  | inhibition at 10 min, 10 µM (CYP1A2): 88.7%
6 | C=Cc1ccc(C(C(=O)O)N2CCN(CC3=C(C(=O)OCC)C(c4ccc(F)cc4Br)N=C(c4nccs4)N3)CC2)cc1 (configuration not stated) | 5.42 | 22.4 µM | 5.9 | 
7 | C=C[C@H]1C[N@@]2CC[C@H]1C[C@@H]2[C@@H](O)c1ccnc2ccc(OC)cc12 [QUINIDINE] |  |  |  | inhibition at 10 min, 10 µM (CYP2D6): 95.6%
8 | CCOC(=O)C1=C(CN2CCN(C(C(=O)O)C3=CCCC3)CC2)NC(c2nccs2)=NC1c1ccc(F)cc1Br (configuration not stated) | 6.30 | > 50 µM | > 100 | 
9 | CCOC(=O)C1=C(CN2CCN(C(C(=O)O)c3ccccc3C#N)CC2)NC(c2nccs2)=NC1c1ccc(F)cc1Br (configuration not stated) | 5.27 | 50 µM | 9.3 | 
10 | CCOC(=O)C1=C(CN2CCN(C(C(=O)O)c3ccc(C=O)cc3)CC2)NC(c2nccs2)=NC1c1ccc(F)cc1Br (configuration not stated) | 5.41 | > 50 µM | > 12.9 | 
11 | CCOC(=O)C1=C(CN2CCN(C(C(=O)O)c3ccccc3)CC2)NC(c2nccs2)=NC1c1ccc(F)cc1Br (configuration not stated) | 5.57 | > 50 µM | > 18.6 | 
12 | CCOC(=O)C1=C(CN2CCN(C(C(=O)O)c3ccc(OC)cc3)CC2)NC(c2nccs2)=NC1c1ccc(F)cc1Br (configuration not stated) | < 5.00 | 29.2 µM | < 2.9 | 
13 | CCOC(=O)C1=C(CN2CCN(C(C(=O)O)c3ccccc3O)CC2)NC(c2nccs2)=NC1c1ccc(F)cc1Br (configuration not stated) | 5.19 | 22.4 µM | 3.4 | 
14 | CCOC(=O)C1=C(CN2CCN(C(C(=O)O)c3ccccc3OC)CC2)NC(c2nccs2)=NC1c1ccc(F)cc1Br (configuration not stated) | 5.63 | 50 µM | 21.3 | 
15 | CCOC(=O)C1=C(CN2CCN(C(C(=O)O)c3ccc4c(c3)OCO4)CC2)NC(c2nccs2)=NC1c1ccc(F)cc1Br (configuration not stated) | 5.61 | 22.4 µM | 9.1 | 
16 | CCOC(=O)C1=C(CN2CCN(C(C(=O)O)C3=CCCCC3)CC2)NC(c2nccs2)=NC1c1ccc(F)cc1Br (configuration not stated) | 6.08 | 29.2 µM | 34.8 | 
17 | CCOC(=O)C1=C(CN2CCN(C(C(=O)O)c3cccc(C(F)F)c3)CC2)NC(c2nccs2)=NC1c1ccc(F)cc1Br (configuration not stated) | < 5.00 | 22.4 µM | < 2.2 | 
18 | O=C(O)Cc1ccccc1Nc1c(Cl)cccc1Cl [DICLOFENAC] |  |  |  | microsomal CLint [4]: 235 µL/min/mg; CLint scaled [5]: 12.7 L/h/kg
19 | CCOC(=O)C1=C(CN2CCN(C(C(=O)O)c3ccc4c(c3)OCCO4)CC2)NC(c2nccs2)=NC1c1ccc(F)cc1Br (configuration not stated) | 7.36 | 22.4 µM | 508 | 
20 | CCOC(=O)C1=C(CN2CCN(C(C(=O)O)c3cccc4ccccc34)CC2)NC(c2nccs2)=NC1c1ccc(F)cc1Br (configuration not stated) | 6.07 | 22.4 µM | 26.3 | 

Row | Structure (SMILES) | pEC50 (Hepatitis B virus [1]) | CC50 [2] | selectivity ratio [3] | other results
21 | C#Cc1cccc(C(C(=O)O)N2CCN(CC3=C(C(=O)OCC)C(c4ccc(F)cc4Br)N=C(c4nccs4)N3)CC2)c1 (configuration not stated) | < 5.00 | 22.4 µM | < 2.2 | 
22 | CCOC(=O)C1=C(CN2CCN(C(C(=O)O)c3ccc(F)cc3)CC2)NC(c2nccs2)=NC1c1ccc(F)cc1Br (configuration not stated) | < 5.00 | 29.2 µM | < 2.9 | 
23 | CCOC(=O)C1=C(CN2CCN(C(C(=O)O)c3ccc(CC)cc3)CC2)NC(c2nccs2)=NC1c1ccc(F)cc1Br (configuration not stated) | 6.34 | 22.4 µM | 41.4 | 
24 | C[C@]12CC[C@H]3[C@@H](CCC4=CC(=O)CC[C@@]43C)[C@@H]1CC[C@@H]2O [TESTOSTERONE] |  |  |  | half-life [6]: 10.7 min; microsomal CLint [4]: 130 µL/min/mg; CLint scaled [5]: 7 L/h/kg
25 | CCOC(=O)C1=C(CN2CCN(C(C(=O)O)c3cccc(F)c3)CC2)NC(c2nccs2)=NC1c1ccc(F)cc1Br (configuration not stated) | < 5.00 | 22.4 µM | < 2.2 | 
26 | CCOC(=O)C1=C(CN2CCN(C(C(=O)O)c3ccc(OC)c(OC)c3)CC2)NC(c2nccs2)=NC1c1ccc(F)cc1Br (configuration not stated) | < 5.00 | > 50 µM |  | 
27 | CCOC(=O)C1=C(CN2CCN(C(C(=O)O)c3ccc(C)cc3)CC2)NC(c2nccs2)=NC1c1ccc(F)cc1Br (configuration not stated) | 5.07 | 22.4 µM | 2.6 | 
28 | CCOC(=O)C1=C(CN2CCN(C(C(=O)O)c3ccc(Br)cc3)CC2)NC(c2nccs2)=NC1c1ccc(F)cc1Br (configuration not stated) | 5.91 | 22.4 µM | 18 | 
29 | CCOC(=O)C1=C(CN2CCN(C(C(=O)O)c3cccc(C=O)c3)CC2)NC(c2nccs2)=NC1c1ccc(F)cc1Br (configuration not stated) | < 5.00 | > 50 µM | 2440 | 
30 | CC[C@@]1(c2ccccc2)NC(=O)N(Cc2ccccc2)C1=O |  |  |  | inhibition at 10 min, 10 µM (CYP2C19): 89.4%
31 | CCOC(=O)C1=C(CN2CCN(C(C(=O)O)c3cccc(C)c3)CC2)NC(c2nccs2)=NC1c1ccc(F)cc1Br (configuration not stated) | 5.60 | 22.4 µM | 8.9 | 
32 | Nc1ccc(S(=O)(=O)Nc2ccnn2-c2ccccc2)cc1 [SULFAPHENAZOLE] |  |  |  | inhibition at 10 min, 10 µM (CYP2C9): 87.1%
33 | CCOC(=O)C1=C(CN2CCN(C(C(=O)O)c3cccc(C#N)c3)CC2)NC(c2nccs2)=NC1c1ccc(F)cc1Br (configuration not stated) | < 5.00 | 22.4 µM | < 2.2 | 
34 | CCOC(=O)C1=C(CN2CCN(C(C(=O)O)c3cccc(O)c3)CC2)NC(c2nccs2)=NC1c1ccc(F)cc1Br (configuration not stated) | 5.62 | > 50 µM | > 21 | 
35 | CCOC(=O)C1=C(CN2CCN(C(C(=O)O)c3ccc(C#N)cc3)CC2)NC(c2nccs2)=NC1c1ccc(F)cc1Br (configuration not stated) | 5.37 | 29.2 µM | 6.8 | 
36 | Nc1ccn([C@@H]2CS[C@H](CO)O2)c(=O)n1 [LAMIVUDINE] | 7.05 | > 50 µM |  | Activity (Hepatitis B virus [7]): inactive
37 | CCOC(=O)C1=C(CN2CCN(C(C(=O)O)c3ccc(Cl)cc3)CC2)NC(c2nccs2)=NC1c1ccc(F)cc1Br (configuration not stated) | 6.41 | 22.4 µM | 57.3 | 
38 | CCOC(=O)C1=C(CN2CCN(C(C(=O)O)c3ccoc3)CC2)NC(c2nccs2)=NC1c1ccc(F)cc1Br (configuration not stated) | < 5.00 | > 50 µM |  | 
39 | CCOC(=O)C1=C(CN2CCN(C(C(=O)O)c3ccc(O)cc3)CC2)NC(c2nccs2)=NC1c1ccc(F)cc1Br (configuration not stated) | 5.20 | 22.4 µM | 3.5 | 
40 | CCOC(=O)C1=C(CN2CCN(C(C(=O)O)c3cccc(C(F)(F)F)c3)CC2)NC(c2nccs2)=NC1c1ccc(F)cc1Br (configuration not stated) | 5.00 | 22.4 µM | 2.2 | 

From ChEMBL document CHEMBL5329208 (RSC Med Chem, 2023)
